{"source": "patent US5700799A", "about": "“Oxazolidinone antimicrobials containing substituted diazine moieties” (Pharmacia & Upjohn Company, priority 1996, dated 1997)", "key": {"S. aureus UC 9213": {"system": "S. aureus UC 9213", "assay": "Murine Assay procedure: in vivo antimicrobial activity, survival of infected mice (S. aureus UC 9213)", "set-up": "species or system Staphylococcus aureus (infected female mice)", "settings": "dosed 1 h and 5 h after i.p. infection, survival daily for six days; for ED50: Staphylococcus aureus, UC9213, 144 h, oral, probit", "protocol": "(§1) Antimicrobial activity was tested in vivo using the Murine Assay procedure. Groups of female mice (six mice of 18-20 grams each) were injected intraperitoneally with bacteria which were thawed just prior to use and suspended in brain heart infusion with 4% brewers yeast (Staphylococcus aureus) or brain heart infusion (Streptococcus species). Antibiotic treatment at six dose levels per drug was administered one hour and five hours after affection by either oral intubation or subcutaneous routes. Survival was observed daily for six days. ED50 values based on mortality ratios were calculated using probit analysis. The subject compounds were compared against well-known antimicrobial as controls."}, "S. aureus UC 9271": {"system": "S. aureus UC 9271", "assay": "Murine Assay procedure: in vivo antimicrobial activity, survival of infected mice (S. aureus UC 9271)", "set-up": "species or system Staphylococcus aureus (infected female mice)", "settings": "Staphylococcus aureus", "protocol": "as §1"}, "S. aureus UC 6685": {"system": "S. aureus UC 6685", "assay": "Murine Assay procedure: in vivo antimicrobial activity, survival of infected mice (S. aureus UC 6685)", "set-up": "species or system Staphylococcus aureus (infected female mice)", "settings": "Staphylococcus aureus", "protocol": "as §1"}, "S. pyogenes UC 152": {"system": "S. pyogenes UC 152", "assay": "Murine Assay procedure: in vivo antimicrobial activity, survival of infected mice (S. pyogenes UC 152)", "set-up": "species or system S. pyogenes (infected female mice)", "settings": "Streptococcus pyogenes, UC152, 144 h, oral, dosed 1 h and 5 h after i.p. infection, survival daily for six days"}, "microbial infections": {"system": "microbial infections", "assay": "treatment of microbial infections (relative activity, test not given)"}}, "note": "Where “and” joins values, the source holds several entries; their conditions need not be identical. Equal values may be shown once. Read-outs that look alike come from different tables or passages of the source."}
{"smiles": "CC(=O)NCC1CN(c2ccc(N3CCN(C(=O)OCCO)CC3)c(F)c2)C(=O)O1", "note": "(stereo not shown) [Example 6, 4-(4-(5-((acetylamino)methyl)-2-oxo-3-oxazolidinyl)-2-fluorophenyl)-1-piperazinecarboxylic acid, 2-hydroxyethyl ester]", "values": [{"measurement": "ED50", "setting": "S. aureus UC 9213", "value": 12, "unit": "mg/kg"}]}
{"smiles": "CN[C@H](CC(C)C)C(=O)N[C@H]1C(=O)N[C@@H](CC(N)=O)C(=O)N[C@H]2C(=O)N[C@H]3C(=O)N[C@H](C(=O)N[C@H](C(=O)O)c4cc(O)cc(O)c4-c4cc3ccc4O)[C@H](O)c3ccc(c(Cl)c3)Oc3cc2cc(c3O[C@@H]2O[C@H](CO)[C@@H](O)[C@H](O)[C@H]2O[C@H]2C[C@](C)(N)[C@H](O)[C@H](C)O2)Oc2ccc(cc2Cl)[C@H]1O", "note": "[Vancomycin, reference compound]", "values": [{"measurement": "Control, ED50, SC", "setting": "S. aureus UC 9213; control antibiotic, subcutaneous, 8640 min", "value": "1.8 mg/kg and 1.9 mg/kg"}, {"measurement": "ED50", "setting": "S. aureus UC 9271; UC9271, sc, 144 h, read-out: Control, ED50, SC", "value": 5.9, "unit": "mg/kg"}]}
{"smiles": "CC(=O)CCC(=O)N1CCN(c2ccc(N3CC(CNC(C)=O)OC3=O)cc2F)CC1", "note": "(racemic) [Example 10, (±)-N-[[3-[4-[4-(1,4-Dioxopentyl)-1-piperazinyl]-3-fluorophenyl]-2-oxo-5-oxazolidinyl]methyl)Acetamide]", "values": [{"measurement": "ED50", "setting": "S. aureus UC 9213", "value": 9.4, "unit": "mg/kg"}]}
{"smiles": "O=C(O)c1cn(C2CC2)c2cc(N3CCNCC3)c(F)cc2c1=O", "note": "[Ciprofloxacin, reference compound]", "values": [{"measurement": "ED50", "setting": "S. aureus UC 6685; UC6685, sc, 144 h, read-out: Control, ED50, SC", "value": 6.6, "unit": "mg/kg"}]}
{"smiles": "COCCN1CCN(c2c(F)cc(N3C[C@H](CNC(C)=O)OC3=O)cc2F)CC1", "note": "[Example 37, (S)-N-[[3-[3,5-difluoro-4-[4-(2-methoxyethyl)-1-piperazinyl]phenyl]-2-oxo-5-oxazolidinyl]methyl]acetamide]", "values": [{"measurement": "ED50", "setting": "S. aureus UC 9213", "value": 12.6, "unit": "mg/kg"}]}
{"smiles": "COCCN1CCN(c2ccc(N3C[C@H](CNC(C)=O)OC3=O)cc2F)CC1", "note": "[Example 36, (S)-N-[[3-[3-fluoro-4-[4-(2-methoxyethyl)-1-piperazinyl]phenyl]-2-oxo-5-oxazolidinyl]methyl]acetamide]", "values": [{"measurement": "ED50", "setting": "S. aureus UC 9213", "value": 7.9, "unit": "mg/kg"}]}
{"smiles": "COC(=O)N1CCN(c2ccc(N3CC(CNC(C)=O)OC3=O)cc2)CC1", "note": "(stereo not shown) [Example 3, 4-(4-(5-((Acetylamino)methyl)-2-oxo-3-oxazolidinyl)phenyl)-1-piperazinecarboxylic acid, methyl ester]", "values": [{"measurement": "ED50", "setting": "S. aureus UC 9213", "value": 10.4, "unit": "mg/kg"}]}
{"smiles": "CC(=O)NCC1CN(c2ccc(N3CCN(C(=O)c4ccccc4)CC3)c(F)c2)C(=O)O1", "note": "(stereo not shown) [Example 7, N-((3-(4-(3-Fluoro-4-((benzoyl)-1-piperazinyl))phenyl)-2-oxo-5-oxazolidinyl)methyl)-acetamide]", "values": [{"measurement": "ED50", "setting": "S. aureus UC 9213", "value": 12, "unit": "mg/kg"}]}
{"smiles": "CC(=O)NCC1CN(c2ccc(N3CCN(CCC#N)CC3)c(F)c2)C(=O)O1", "note": "(stereo not shown) [Example 5, N-((3-(4-(3-Fluoro-4-(4-(2-Cyanoethyl)-1-piperazinyl))phenyl)-2-oxo-5-oxazolidinyl)methyl)-acetamide]", "values": [{"measurement": "ED50", "setting": "S. aureus UC 9213", "value": 10, "unit": "mg/kg"}]}
{"smiles": "COC(=O)N1CCN(c2ccc(N3CC(CNC(C)=O)OC3=O)cc2F)CC1", "note": "(stereo not shown) [Example 1, 4-(4-(5-((Acetylamino)methyl)-2-oxo-3-oxazolidinyl)-2-fluorophenyl)-1-piperazinecarboxylic acid, methyl ester]", "values": [{"measurement": "ED50", "setting": "S. pyogenes UC 152", "value": 2.3, "unit": "mg/kg"}, {"measurement": "ED50", "setting": "S. aureus UC 6685; UC6685, 144 h, S. aureus UC 6685, oral, dosed 1 h and 5 h after i.p. infection, survival daily for six days, read-out: ED50, PO", "value": 4, "unit": "mg/kg"}, {"measurement": "ED50", "setting": "S. aureus UC 9213", "value": 3.8, "unit": "mg/kg"}, {"measurement": "ED50", "setting": "S. aureus UC 9271; UC9271, 144 h, S. aureus UC 9271, oral, dosed 1 h and 5 h after i.p. infection, survival daily for six days, read-out: ED50, PO", "value": 4, "unit": "mg/kg"}, {"measurement": "activity relative to the Formula I compounds", "setting": "microbial infections", "value": "most active"}]}
{"smiles": "CC(=O)NCC1CN(c2ccc(N3CCN(CC#N)CC3)c(F)c2)C(=O)O1", "note": "(stereo not shown) [Example 9]", "values": [{"measurement": "activity relative to the Formula I compounds", "setting": "microbial infections", "value": "most active"}]}
